Assays:
[1] = system: antibody raised against Tyr-(CGRP amino acids 25-37)-amide; experiment: Radioimmunoassay cross-reactivity with 125I-Tyr-(CGRP amino acids 25-37)-amide tracer; type: binding, rabbit; conditions: 1:12500 dilution of serum, 1800 cpm tracer, 400 μl assay
Procedure: Cells from a 500 ml culture were harvested and lysed in a lysozyme/sodium deoxycholate mixture (5 ml), then treated with DNase for 30 mins. at 5° C. (Emtage J. S. et al PNAS (1983), 80, p 3671-3675). […] Radioimmunoassay was carried out in 0.05M phosphate buffer pH 7.4 in a final volume of 400 ul (see Girgis, S. I. et al J. Endocrinol 78, 372-382). Antiserum was raised in rabbits, using the known techniques, against Tyr-(CGRP amino acids 25-37)-amide and conjugated to chick ovalbumin (Reichlin, M.1980, Meth.Enzymol 70 159-165) and against ^125 I Tyr-(CGRP amino acids 25-37)-amide tracer.
The tracer was iodinated using the Chloramine T method of Hunter and Greenwood.

[2] = system: pentobarbitone anaesthetised rat; experiment: Cardiovascular actions (mean arterial pressure, heart rate) after i.v. administration in anaesthetised rats; type: in vivo
Procedure: Groups of 4 to 6 male Sprague-Dawley rats (285-315 g) were anaesthetised with sodium pentobarbitone (60 mg Kg^-1 i.p.). The trachea, left carotid artery and left jugular vein were cannulated. Blood pressure was recorded from the carotid artery on a Grass polygraph via a Statham P23 ID pressure transducer and mean arterial pressure derived from the trace. Heart rate was measured by a tachograph (Grass model 7P4) triggered by the blood pressure signal. […] Purified rat CGRP was from the same source. All synthetic preparations were subject to mass spectrometry (M-Scan Ltd.) to confirm structure and purity before use. […] All compounds were administered intravenously except for mepyramine (s.c.). […] The peak fall in mean arterial pressure (MAP) and heart rate (HR) after 2 min was measured.
The mechanism of action of PDA-4 was not examined.

[3] = system: guinea-pig right atrial preparation; experiment: Rate and force of contraction of isolated guinea-pig right atrium; type: cell-based
Procedure: Male Dunkin Hartley guinea-pigs (280-400 g) were killed by cervical dislocation and exsanguinated. The heart was removed, the right atrium dissected out and mounted under 0.5 g tension in Krebs solution (mM): NaCl 118, KCl 4.7, CaCl2 2.5, KH2 PO4 1.18, NaHCO3 25, MgSO4 1.18 and glucose 11.1, at 34° C. bubbled with 95:5 02 :CO2. Atrial force and rate were measured isometrically by a Grass FT.03 transducer and recorded on a Grass polygraph. Single doses of either human or rat CGRP were given in a random order.

[4] = cumulative doses at 2 min intervals, anaesthetised rat

## CC(C)C[C@H](NC(=O)[C@H](CCCCN)NC(=O)CNC(=O)[C@H](CC(C)C)NC(=O)[C@@H](NC(=O)[C@@H]1CSSC[C@H](N)C(=O)N[C@@H](CO)C(=O)N[C@@H](CC(N)=O)C(=O)N[C@@H](CC(C)C)C(=O)N[C@@H](CO)C(=O)N[C@@H]([C@@H](C)O)C(=O)N1)C(C)C)C(=O)N[C@@H](CO)C(=O)N[C@@H](CCC(N)=O)C(=O)N[C@@H](CCC(=O)O)C(=O)N[C@@H](CC(C)C)C(=O)N[C@@H](Cc1c[nH]cn1)C(=O)N[C@@H](CCCCN)C(=O)N[C@@H](CC(C)C)C(=O)N[C@@H](CCC(N)=O)C(=O)N[C@H](C(=O)N[C@@H](Cc1ccc(O)cc1)C(=O)N1CCC[C@H]1C(=O)N[C@@H](CCCNC(=N)N)C(=O)N[C@H](C(=O)N[C@@H](CC(N)=O)C(=O)N[C@H](C(=O)NCC(=O)N[C@@H](CO)C(=O)NCC(=O)N[C@H](C(=O)N1CCC[C@H]1C(N)=O)[C@@H](C)O)[C@@H](C)O)[C@@H](C)O)[C@@H](C)O [salmon calcitonin]
[1]
  cross-reaction with the antibody (displacement of tracer): does not cross-react

## Tyr-CGRP (amino acids 1-8): tyrosinated fragment of human CGRP, amino acids 1 to 8 (ACDTATCV; Calcitonin gene-related peptide 1 N-terminal tyrosine added; UniProt P06881 83-90, looked up, fragment)
[1]
  cross-reaction with the antibody (displacement of tracer): does not cross-react

## human calcitonin: human calcitonin, tested for cross-reaction in the radioimmunoassay
[1]
  cross-reaction with the antibody (displacement of tracer): does not cross-react

## katacalcin: carboxy terminal peptide designated PDN-21 (Katacalcin) of the human calcitonin polyprotein (DMSSDLERDHRPHVSMPQNAN; Katacalcin; UniProt P01258 121-141, looked up)
[1]
  cross-reaction with the antibody (displacement of tracer): does not cross-react

## rat CGRP: synthetic rat CGRP preparation from Peninsula Laboratories
[2]; [4]
  fall in mean arterial pressure (MAP): dose-dependent fall in MAP
  increase in heart rate (HR): increase in HR
[2]; pentobarbitone anaesthetised rat
  dose representing a 50% decrease in blood pressure: 0.23 nmol/kg
[3]; isolated right atrium
  potency relative to human CGRP at increasing rate (times more potent): approximately 10 times
  potency relative to human CGRP in evoking increases in force: equipotent
[3]; propranolol
  increase in rate or force in presence of propranolol: Neither the increase in rate or force produced by rat CGRP was blocked
[1]
  cross-reaction with the antibody (displacement of tracer): recognises antigenic determinants
